This is an account of results in patent US20030228253A1, “Radiolabelled thioplatin, compositions thereof and methods of cancer treatment” (priority 2002, published 2003).

Entries after “also recorded” stand apart in the source; their conditions may differ.

One series deals with human squamous carcinoma. As to conditions: nude mice bearing a human squamous carcinoma; cited from earlier work.
Series [1] has as its system DNA of tumor cells. The settings on record: background statement; cited from earlier work.
In series [2] the test system is DNA of tumor cells. Kind of series: DNA binding of platinum compounds. The settings on record: for DNA binding: pH 6.8 (solid tumor pH norm). From the text:
^195mPlatinum is cytotoxic by its release of “auger” electron at 33/disintegrations and with a half-life of over 4 days. In order to amplify the cytotoxicity of the tumor cells, the final drug radioactive thioplatin must be located on the DNA of tumor cells. […] Radioactive thioplatin can be quantitated in the clinic by nuclear SPECT scanning of the tumor and normal tissues for low-energy photons (65-129 kev) emitted by radioactive platinum.

For series [3] the following is noted: background statement; cited from earlier work.
Series [4] has as its system human lung and colon cancer. In words: Tumor cytotoxicity in human tumor xenografts in nude mice. Format: in vivo.
The nature of series [5]: Normal tissue toxicity in experimental animals (body weight, white blood cells, BUN, histopathology/biopsy of kidney and intestine). The series is classed as in vivo. Here is the method: Thioplatin administered to experimental animals was assayed for the effects of the drug on body weight, white blood cells, BUN and histophathology of kidneys and small intestines.

Regarding `N.N.[Cl][191Pt][Cl]` [^191cisplatin], in the series with human squamous carcinoma, the “antitumor effect (tumor growth delay, log of tumor growth, area under the curve)” value was “cytotoxic to the tumor”.

Regarding `N.N.[Cl][Pt][Cl]` [cisplatin], the “binding of DNA” value in the series on DNA of tumor cells [1] is given as 14.3 nanograms/milligrams. Moreover, the DNA binding in the series with DNA of tumor cells [2] was 14.6 ng/mg.

For the compound thioplatin, the “peripheral toxicity by direct biopsy of the kidney and intestinal tract” value in series [3] is given as “lack of normal tissue toxicity”. For the same compound, in series [4] (human tumor xenografts in nude mice, human lung and colon cancer), the tumor cytotoxicity entry is “cytotoxic to human lung and colon cancer; also recorded: significant tumor cytotoxicity”. Besides, in series [4] (tumor pH 6.8 versus normal pH 7.2 to 7.4), the “pH dependence of cytotoxicity” value is on record as “most effective at an acidic pH”. Further, in series [5] (experimental animals), the “effect on BUN” value was “negligible”; the “effect on body weight” value is given as “negligible”; the “effect on white blood cells” value is reported as “negligible”; the “histopathology of kidneys and small intestines” value was “negligible”. Further, the “normal tissue toxicity compared to cisplatin” value in series [5] (human tumor xenografts in nude mice, compared to the standard cisplatin) is “reduced normal tissue toxicity”. Further, the “DNA binding relative to cisplatin” value in the series on DNA of tumor cells [2] (background statement, compared to cisplatin) was “one-thousand”. The DNA binding in the series on DNA of tumor cells [2] is recorded as 13,870 ng/mg.
